Legend:
[1] = target: T1, Pheromone binding protein 5 (Pbp5) (Bactrocera dorsalis, UniProt A0A6I9V7R6); experiment: competitive fluorescence displacement of 1-NPN
T1 sequence (A0A6I9V7R6 21-147): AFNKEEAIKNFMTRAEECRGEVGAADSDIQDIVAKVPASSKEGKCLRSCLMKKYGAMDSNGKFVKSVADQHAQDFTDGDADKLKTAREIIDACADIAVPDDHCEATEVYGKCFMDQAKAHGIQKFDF

[2] = target: T2, Pheromone binding protein 5 (Pbp5) mutant (Bactrocera dorsalis, UniProt A0A6I9V7R6, F147A/F31A/F95A/I28A); experiment: direct fluorescence binding assay
T2 sequence (A0A6I9V7R6 21-147 I28A/F31A/F95A/F147A): T1 sequence (A0A6I9V7R6 21-147)

[3] = target: T1, Pheromone binding protein 5 (Pbp5); experiment: direct fluorescence binding assay

| Structure (SMILES) | Ki [1] | Kd [2] | Kd [3] |
| --- | --- | --- | --- |
| Cc1nc(C)c(C)nc1C [TTMP, tetramethylpyrazine] | 0.21 µM | – | – |
| Cc1cnc(C)c(C)n1 [TMP, trimethylpyrazine] | 0.224 µM | – | – |
| c1ccc(Nc2cccc3ccccc23)cc1 [1-NPN, N-phenyl-1-naphthylamine] | – | 33.9 µM | 10.6 µM |

Source: PMC11849186 (BMC Biology, 2025)
